Columns and labels:
[1] = test system: PC-3; test: Cytotoxicity against human PC3 cells at 10 uM after 48 hrs by SRB assay; type: functional; conditions: PC-3, 48 h, read-out: GI
[2] = test system: HT-29; test: Cytotoxicity against human HT-29 cells at 10 uM after 48 hrs by SRB assay; type: functional; conditions: HT-29, 48 h, read-out: GI
[3] = test system: SNB-19; test: Cytotoxicity against human SNB19 cells at 10 uM after 48 hrs by SRB assay; type: functional; conditions: SNB-19, 48 h, read-out: GI
[4] = test system: NCI-H322M; test: Cytotoxicity against human NCI-H322M cells at 10 uM after 48 hrs by SRB assay; type: functional; conditions: read-out: GI
[5] = test system: NCI-H226; test: Cytotoxicity against human NCI-H226 cells at 10 uM after 48 hrs by SRB assay; type: functional; conditions: NCI-H226, 48 h, read-out: GI
[6] = test system: SR; test: Cytotoxicity against human SR cells at 10 uM after 48 hrs by SRB assay; type: functional; conditions: read-out: GI
[7] = test system: OVCAR-3; test: Cytotoxicity against human OVCAR3 cells at 10 uM after 48 hrs by SRB assay; type: functional; conditions: OVCAR-3, 48 h, read-out: GI
[8] = test system: HCT-15; test: Cytotoxicity against human HCT15 cells at 10 uM after 48 hrs by SRB assay; type: functional; conditions: HCT-15, 48 h, read-out: GI
[9] = test system: HL-60(TB); test: Cytotoxicity against human HL-60(TB) cells at 10 uM after 48 hrs by SRB assay; type: functional; conditions: HL-60, 48 h, read-out: GI
[10] = test system: COLO 205; test: Cytotoxicity against human COLO205 cells at 10 uM after 48 hrs by SRB assay; type: functional; conditions: COLO 205, 48 h, read-out: GI
[11] = test system: RXF 393; test: Cytotoxicity against human RXF393 cells at 10 uM after 48 hrs by SRB assay; type: functional; conditions: RXF 393, 48 h, read-out: GI
[12] = test system: NCI-H23; test: Cytotoxicity against human NCI-H23 cells at 10 uM after 48 hrs by SRB assay; type: functional; conditions: NCI-H23, 48 h, read-out: GI
[13] = test system: RPMI-8226; test: Cytotoxicity against human RPMI8226 cells at 10 uM after 48 hrs by SRB assay; type: functional; conditions: RPMI-8226, 48 h, read-out: GI
[14] = test system: NCI-H460; test: Cytotoxicity against human NCI-H460 cells at 10 uM after 48 hrs by SRB assay; type: functional; conditions: NCI-H460, 48 h, read-out: GI
[15] = test system: MDA-MB-468; test: Cytotoxicity against human MDA-MB-468 cells at 10 uM after 48 hrs by SRB assay; type: functional; conditions: MDA-MB-468, 48 h, read-out: GI
[16] = test system: UO-31; test: Cytotoxicity against human UO31 cells at 10 uM after 48 hrs by SRB assay; type: functional; conditions: UO-31, 48 h, read-out: GI
[17] = test system: HOP-92; test: Cytotoxicity against human HOP92 cells at 10 uM after 48 hrs by SRB assay; type: functional; conditions: HOP-92, 48 h, read-out: GI
[18] = test system: SK-MEL-2; test: Cytotoxicity against human SK-MEL-2 cells at 10 uM after 48 hrs by SRB assay; type: functional; conditions: SK-MEL-2, 48 h, read-out: GI
[19] = test system: LOX IMVI; test: Cytotoxicity against human LOXIMVI cells at 10 uM after 48 hrs by SRB assay; type: functional; conditions: read-out: GI
[20] = test system: 786-0; test: Cytotoxicity against human 786-0 cells at 10 uM after 48 hrs by SRB assay; type: functional; conditions: 786-0, 48 h, read-out: GI
[21] = test system: SN12C; test: Cytotoxicity against human SN12C cells at 10 uM after 48 hrs by SRB assay; type: functional; conditions: read-out: GI
[22] = test system: UACC-62; test: Cytotoxicity against human UACC62 cells at 10 uM after 48 hrs by SRB assay; type: functional; conditions: UACC-62, 48 h, read-out: GI
[23] = test system: OVCAR-8; test: Cytotoxicity against human OVCAR8 cells at 10 uM after 48 hrs by SRB assay; type: functional; conditions: OVCAR-8, 48 h, read-out: GI
[24] = test system: HCT-116; test: Cytotoxicity against human HCT116 cells at 10 uM after 48 hrs by SRB assay; type: functional; conditions: HCT-116, 48 h, read-out: GI
[25] = test system: NCI-H522; test: Cytotoxicity against human NCI-H522 cells at 10 uM after 48 hrs by SRB assay; type: functional; conditions: NCI-H522, 48 h, read-out: GI
[26] = test system: U-251; test: Cytotoxicity against human U251 cells at 10 uM after 48 hrs by SRB assay; type: functional; conditions: U-251, 48 h, read-out: GI
[27] = test system: A549; test: Cytotoxicity against human A549 cells at 10 uM after 48 hrs by SRB assay; type: functional; conditions: A549, 48 h, read-out: GI
[28] = n-Octanol-phosphate buffer partition coefficient, log P of the compound at pH 7.4 by shake flask method; type: physicochemical
[29] = test system: M14; test: Cytotoxicity against human M14 cells at 10 uM after 48 hrs by SRB assay; type: functional; conditions: M14, 48 h, read-out: GI
[30] = test system: OVCAR-5; test: Cytotoxicity against human OVCAR5 cells at 10 uM after 48 hrs by SRB assay; type: functional; conditions: OVCAR-5, 48 h, read-out: GI
[31] = test system: SF-539; test: Cytotoxicity against human SF539 cells at 10 uM after 48 hrs by SRB assay; type: functional; conditions: SF-539, 48 h, read-out: GI
[32] = test system: MDA-MB-231; test: Cytotoxicity against human MDA-MB-231 cells at 10 uM after 48 hrs by SRB assay; type: functional; conditions: MDA-MB-231, 48 h, read-out: GI
[33] = test system: SF-268; test: Cytotoxicity against human SF268 cells at 10 uM after 48 hrs by SRB assay; type: functional; conditions: SF-268, 48 h, read-out: GI
[34] = test system: ACHN; test: Cytotoxicity against human ACHN cells at 10 uM after 48 hrs by SRB assay; type: functional; conditions: read-out: GI
[35] = test system: OVCAR-4; test: Cytotoxicity against human OVCAR4 cells at 10 uM after 48 hrs by SRB assay; type: functional; conditions: OVCAR-4, 48 h, read-out: GI
[36] = test system: T47D; test: Cytotoxicity against human T47D cells at 10 uM after 48 hrs by SRB assay; type: functional; conditions: read-out: GI
[37] = test system: K562; test: Cytotoxicity against human K562 cells at 10 uM after 48 hrs by SRB assay; type: functional; conditions: K562, 48 h, read-out: GI
[38] = test system: IGROV-1; test: Cytotoxicity against human IGROV1 cells at 10 uM after 48 hrs by SRB assay; type: functional; conditions: IGROV-1, 48 h, read-out: GI
[39] = test system: MOLT-4; test: Cytotoxicity against human MOLT4 cells at 10 uM after 48 hrs by SRB assay; type: functional; conditions: MOLT-4, 48 h, read-out: GI
[40] = test system: DU-145; test: Cytotoxicity against human DU145 cells at 10 uM after 48 hrs by SRB assay; type: functional; conditions: DU-145, 48 h, read-out: GI
[41] = test system: SK-OV-3; test: Cytotoxicity against human SKOV3 cells at 10 uM after 48 hrs by SRB assay; type: functional; conditions: SK-OV-3, 48 h, read-out: GI
[42] = test system: KM12; test: Cytotoxicity against human KM12 cells at 10 uM after 48 hrs by SRB assay; type: functional; conditions: KM12, 48 h, read-out: GI

**Q.** Which inhibition of growth at 10 µM [1] does the source give for C=CCn1c(C)nc2cc(Nc3nc(Cl)nc4ccccc34)ccc21 here?
**A.** 19.5%

**Q.** What about the inhibition of growth at 10 µM [2] of the same compound?
**A.** < 10%

**Q.** And the inhibition of growth at 10 µM [3]?
**A.** < 10%

**Q.** What about the inhibition of growth at 10 µM [4] of the same compound?
**A.** < 10%

**Q.** What about the inhibition of growth at 10 µM [5] of the same compound?
**A.** 17.8%

**Q.** And the inhibition of growth at 10 µM [6]?
**A.** < 10%

**Q.** What about the inhibition of growth at 10 µM [7] of the same compound?
**A.** < 10%

**Q.** And the inhibition of growth at 10 µM [8]?
**A.** < 10%

**Q.** And the inhibition of growth at 10 µM [9]?
**A.** < 10%

**Q.** And the inhibition of growth at 10 µM [10]?
**A.** < 10%

**Q.** And the inhibition of growth at 10 µM [11]?
**A.** < 10%

**Q.** What about the inhibition of growth at 10 µM [12] of the same compound?
**A.** < 10%

**Q.** What about the inhibition of growth at 10 µM [13] of the same compound?
**A.** 22.3%

**Q.** And the inhibition of growth at 10 µM [14]?
**A.** < 10%

**Q.** And the inhibition of growth at 10 µM [15]?
**A.** 19.1%

**Q.** What about the inhibition of growth at 10 µM [16] of the same compound?
**A.** 10.3%

**Q.** And the inhibition of growth at 10 µM [17]?
**A.** < 10%

**Q.** And the inhibition of growth at 10 µM [18]?
**A.** < 10%

**Q.** And the inhibition of growth at 10 µM [19]?
**A.** < 10%

**Q.** What about the inhibition of growth at 10 µM [20] of the same compound?
**A.** < 10%

**Q.** And the inhibition of growth at 10 µM [21]?
**A.** < 10%

**Q.** And the inhibition of growth at 10 µM [22]?
**A.** 10.2%

**Q.** And the inhibition of growth at 10 µM [23]?
**A.** < 10%

**Q.** What about the inhibition of growth at 10 µM [24] of the same compound?
**A.** < 10%

**Q.** And the inhibition of growth at 10 µM [25]?
**A.** < 10%

**Q.** What about the inhibition of growth at 10 µM [26] of the same compound?
**A.** < 10%

**Q.** And the inhibition of growth at 10 µM [27]?
**A.** < 10%

**Q.** And the logD [28]?
**A.** 1.17

**Q.** And the inhibition of growth at 10 µM [29]?
**A.** < 10%

**Q.** And the inhibition of growth at 10 µM [30]?
**A.** < 10%

**Q.** What about the inhibition of growth at 10 µM [31] of the same compound?
**A.** < 10%

**Q.** And the inhibition of growth at 10 µM [32]?
**A.** 14.5%

**Q.** And the inhibition of growth at 10 µM [33]?
**A.** < 10%

**Q.** What about the inhibition of growth at 10 µM [34] of the same compound?
**A.** < 10%

**Q.** And the inhibition of growth at 10 µM [35]?
**A.** < 10%

**Q.** And the inhibition of growth at 10 µM [36]?
**A.** 21.3%

**Q.** What about the inhibition of growth at 10 µM [37] of the same compound?
**A.** 21.3%

**Q.** And the inhibition of growth at 10 µM [38]?
**A.** < 10%

**Q.** And the inhibition of growth at 10 µM [39]?
**A.** < 10%

**Q.** What about the inhibition of growth at 10 µM [40] of the same compound?
**A.** < 10%

**Q.** And the inhibition of growth at 10 µM [41]?
**A.** < 10%

**Q.** And the inhibition of growth at 10 µM [42]?
**A.** < 10%

Source: ChEMBL document CHEMBL2380212, “Synthesis, single crystal and antitumor activities of benzimidazole-quinazoline hybrids” (Bioorg Med Chem Lett, 2013)
